Earlier results in patent US8697862B2, “Synthesis of galactoside inhibitors” (Galecto Biotech AB, priority 2008, dated 2014).

Tested on: galectins

| Kd (all galectins) | SMILES | affinity, times lower than lactose (relative to lactose) |
| --- | --- | --- |
|  | O=C[C@H](O)[C@@H](O)[C@@H](O)[C@H](O)CO [D-galactose] | 50-100 times |
| 500 to 1000 µM | OC[C@H]1O[C@@H](O[C@H]2[C@H](O)[C@@H](O)C(O)O[C@@H]2CO)[C@H](O)[C@@H](O)[C@H]1O (some centres unmarked) [lactose] |  |
